# Results published in patent US6846492B2, “Use of phenylethylamine derivatives for the antimicrobial treatment of surfaces” (Ciba Specialty Chemicals Corporation, priority 2000, dated 2005).
# Counter-ions that a name gives are not always drawn. Like-named read-outs stand apart in the source and are kept apart here.
# Experiments:
# [1] = test system: Candida albicans ATCC 10231 (= CA); assay: MIC determination in microtiter plates, Candida albicans; type: cell-based; details: for MIC [ppm] CA: Tables 2a/2b, ≦20% growth, optical density 620 nm, some approximate values; for MIC: read-out: MIC [ppm] Candida albicans ATC 10231
# Method: (§1) Determination of the Minimum Inhibitory Concentration (MIC Value) in Microtiter Plates
# (§2) Casein/soybean flour peptone bouillon for the preparation of pre-cultures of the test bacteria and yeast.
# (§3) Mycological slant agar for the pre-culture of moulds
# (§4) The test substances are pre-dissolved in dimethyl sulfoxide (DMSO) and tested in a dilution series of 1:2.
# (§5) Bacteria and yeast are cultured overnight in CASO bouillon, the mould is cultured overnight on mycological slant agar, and washed off with 10 ml of 0.85% sodium chloride solution (+0.1% TritonX-100).
# (§6) All the test organisms are adjusted to an organism count of 1−5×10^6 CFU/ml using 0.85% sodium chloride solution.
# (§7) The test substances are pre-pipetted into microtiter plates in an amount of 8 μl per well.
# (§8) Pre-diluted organism suspensions are diluted 1:100 in CASO bouillon (bacteria and yeast) or Sabouraud 2% glucose bouillon (mould) and are added in an amount of 192 μl per well to the test substances.
# (§9) The test batches are incubated for 48 hours at 37° C. (bacteria and yeast) or for 5 days at 28° C. (mould).
# (§10) After incubation, the growth is evaluated by reference to the turbidity of the test batches (optical density) at 620 nm in a microplate reader.
# (§11) One microtiter plate is used for each test organism and substance concentration. All the substances are tested in duplicate.
# [2] = test system: Staphylococcus hominis DMS 20328 (= SH); assay: MIC determination in microtiter plates, Staphylococcus hominis; type: cell-based; details: for MIC [ppm] SH: Tables 2a/2b, ≦20% growth, optical density 620 nm, tested at 120, 60, 30, 15, 7.5 and 3.5 ppm, some approximate; for MIC: read-out: MIC [ppm] Staphylococcus hominis DSM 20328
# Method: as §1, §2, §3, §4, §5, §6, §7, §8, §9, §10, §11
# [3] = test system: Aspergillus niger ATCC 6275 (= AN); assay: MIC determination in microtiter plates, Aspergillus niger; type: cell-based; details: 5 days at 28° C.; for MIC [ppm] AN: Tables 2a/2b, ≦20% growth, optical density 620 nm, some approximate values; for MIC: ATCC6275, 120 h, Table 2c, read-out: MIC [ppm] Aspergillus niger ATCC 6275
# Method: as §1, §2, §3, §4, §5, §6, §7, §8, §9, §10, §11
# [4] = test system: Pseudomonas aeruginosa CIP A-22 (= PA); assay: MIC determination in microtiter plates, Pseudomonas aeruginosa; type: cell-based; details: Tables 2a/2b, 48 hours at 37° C., ≦20% growth, optical density 620 nm, some approximate values
# Method: as §1, §2, §3, §4, §5, §6, §7, §8, §9, §10, §11
# [5] = test system: Escherichia coli NCTC 8196 (= EC); assay: MIC determination in microtiter plates, Escherichia coli; type: cell-based; details: 48 hours at 37° C.; for MIC [ppm] EC: Tables 2a/2b, ≦20% growth, optical density 620 nm, some approximate values
# Method: as §1, §2, §3, §4, §5, §6, §7, §8, §9, §10, §11
# [6] = test system: Staphylococcus aureus ATCC 9144; assay: MIC determination in microtiter plates, Staphylococcus aureus; type: cell-based; details: read-out: MIC [ppm] Staphylococcus aureus ATCC 9144
# Method: as §1, §2, §3, §4, §5, §6, §7, §8, §9, §10, §11
# [7] = test system: Propionibacterium acnes ATCC11829; assay: MIC determination in microtiter plates, Propionibacterium acnes; type: cell-based; details: Cutibacterium acnes, read-out: MIC [ppm] Propionibacterium acnes ATCC11829
# Method: as §1, §2, §3, §4, §5, §6, §7, §8, §9, §10, §11
# [8] = test system: Streptococcus mutans ATCC 25175; assay: MIC determination in microtiter plates, Streptococcus mutans; type: cell-based; details: read-out: MIC [ppm] Streptococcus mutans ATCC 25175
# Method: as §1, §2, §3, §4, §5, §6, §7, §8, §9, §10, §11
# [9] = test system: Actinomyces viscosum DSM 43329; assay: MIC determination in microtiter plates, Actinomyces viscosum; type: cell-based; details: read-out: MIC [ppm] Actinomyces viscosum DSM 43329
# Method: as §1, §2, §3, §4, §5, §6, §7, §8, §9, §10, §11
# [10] = test system: Streptococcus sobrinus DSM 20742; assay: MIC determination in microtiter plates, Streptococcus sobrinus; type: cell-based; details: read-out: MIC [ppm] Streptococcus sobrinus DSM 20742
# Method: as §1, §2, §3, §4, §5, §6, §7, §8, §9, §10, §11
# [11] = test system: Porphyromonas gingivalis DSM 20709; assay: MIC determination in microtiter plates, Porphyromonas gingivalis; type: cell-based; details: read-out: MIC [ppm] Porphyromonas gingivalis DSM 20709
# Method: as §1, §2, §3, §4, §5, §6, §7, §8, §9, §10, §11
# [12] = test system: Epidermophyton floccosum DSM 10709; assay: MIC determination in microtiter plates, Epidermophyton floccosum; type: cell-based; details: DSM10709, 120 h, read-out: MIC [ppm] Epidermophyton floccosum DSM 10709
# Method: as §1, §2, §3, §4, §5, §6, §7, §8, §9, §10, §11
# [13] = test system: Staphylococcus epidermidis ATCC 12228; assay: MIC determination in microtiter plates, Staphylococcus epidermidis; type: cell-based; details: read-out: MIC [ppm] Staphylococcus epidermidis ATCC 12228
# Method: as §1, §2, §3, §4, §5, §6, §7, §8, §9, §10, §11
# [14] = test system: Enterococcus hirae ATCC 10541; assay: MIC determination in microtiter plates, Enterococcus hirae; type: cell-based; details: read-out: MIC [ppm] Enterococcus hirae ATCC 10541
# Method: as §1, §2, §3, §4, §5, §6, §7, §8, §9, §10, §11
# [15] = test system: Corynebacterium xerosis ATCC 373; assay: MIC determination in microtiter plates, Corynebacterium xerosis; type: cell-based; details: read-out: MIC [ppm] Corynebacterium xerosis ATCC 373
# Method: as §1, §2, §3, §4, §5, §6, §7, §8, §9, §10, §11
# [16] = test system: Trichophyton rubrum DSM 4167; assay: MIC determination in microtiter plates, Trichophyton rubrum; type: cell-based; details: DSM4167, 120 h, read-out: MIC [ppm] Trichophyton rubrum DSM 4167
# Method: as §1, §2, §3, §4, §5, §6, §7, §8, §9, §10, §11
# [17] = test system: Trichophyton mentagrophytes ATCC 9533; assay: MIC determination in microtiter plates, Trichophyton mentagrophytes; type: cell-based; details: ATCC9533, 120 h, Table 2c, 5 days at 28° C., read-out: MIC [ppm] Trichophyton mentagrophytes ATCC 9533
# Method: as §1, §2, §3, §4, §5, §6, §7, §8, §9, §10, §11
# [18] = test system: Selenomonas artemidis ATCC 43528; assay: MIC determination in microtiter plates, Selenomonas artemidis; type: cell-based; details: Centipeda artemidis, ATCC43528; Table 2c; 48 hours at 37° C.; read-out: MIC [ppm] Selenomonas artemidis ATCC 43528
# Method: as §1, §2, §3, §4, §5, §6, §7, §8, §9, §10, §11
# [19] = ATCC9144, Table 2c, 48 hours at 37° C.
# [20] = ATCC10231, Table 2c, 48 hours at 37° C.
# [21] = DSM20328, Table 2c, 48 hours at 37° C.
# [22] = ATCC25175, Table 2c, 48 hours at 37° C.
# [23] = DSM20742, Table 2c, 48 hours at 37° C.
# [24] = DSM20709, Table 2c, 48 hours at 37° C.
# [25] = ATCC12228, Table 2c, 48 hours at 37° C.
# [26] = ATCC10541, Table 2c, 48 hours at 37° C.
# [27] = ATCC373, Table 2c, 48 hours at 37° C.
smiles,measurement,setting,value
NCCc1cc(OCc2ccccc2)c(OCc2ccccc2)c(OCc2ccccc2)c1 (as salt: hydrochloride),melting point,,130 °C
C=CCCOc1cc(CCN)cc(OCCC=C)c1OCCC=C [Compound 94],MIC [ppm] CA,[1]; 48 hours at 37° C.,120 ppm
same,MIC [ppm] SH,[2]; 48 hours at 37° C.,60 ppm
same,MIC [ppm] AN,[3],>120 ppm
same,MIC [ppm] PA,[4],>120 ppm
same,MIC [ppm] EC,[5],60 ppm
NCCc1cc(OCC(=O)c2ccccc2)c(OCC(=O)c2ccccc2)c(OCC(=O)c2ccccc2)c1 [Compound 97],MIC [ppm] CA,[1]; 48 hours at 37° C.,>120 ppm
same,MIC [ppm] SH,[2]; 48 hours at 37° C.,>120 ppm
same,MIC [ppm] AN,[3],>120 ppm
same,MIC [ppm] PA,[4],>120 ppm
same,MIC [ppm] EC,[5],>120 ppm
Cc1ccc(C(=O)COc2cc(CCN)cc(OCC(=O)c3ccc(C)cc3)c2OCC(=O)c2ccc(C)cc2)cc1 [Compound 98],MIC [ppm] CA,[1]; 48 hours at 37° C.,>120 ppm
same,MIC [ppm] SH,[2]; 48 hours at 37° C.,30 ppm
same,MIC [ppm] AN,[3],>120 ppm
same,MIC [ppm] PA,[4],>120 ppm
same,MIC [ppm] EC,[5],30 ppm
NCCc1cc(OCC(=O)c2ccc(F)cc2)c(OCC(=O)c2ccc(F)cc2)c(OCC(=O)c2ccc(F)cc2)c1 [Compound 99],MIC [ppm] CA,[1]; 48 hours at 37° C.,>120 ppm
same,MIC [ppm] SH,[2]; 48 hours at 37° C.,60 ppm
same,MIC [ppm] AN,[3],>120 ppm
same,MIC [ppm] PA,[4],>120 ppm
same,MIC [ppm] EC,[5],60 ppm
"CCCCCCCCCCCCOc1ccc(CCN)cc1OC [Compound 100, 1-Amino-2-(4-dodecyloxy-3-methoxyphenyl)ethane]",MIC,[6]; [19],25 µg/mL
same,MIC,[1]; [20],2 µg/mL
same,MIC,[2]; [21],2 µg/mL
same,MIC,[3],2 µg/mL
same,MIC,"[7]; ATCC11829, Table 2c, 48 hours at 37° C.",50 µg/mL
same,MIC,[8]; [22],6 µg/mL
same,MIC,"[9]; DSM43329, Table 2c, 48 hours at 37° C.",25 µg/mL
same,MIC,[10]; [23],6 µg/mL
same,MIC,[11]; [24],25 µg/mL
same,MIC,"[12]; Table 2c, 5 days at 28° C.",3 µg/mL
same,MIC,[13]; [25],13 µg/mL
same,MIC,[14]; [26],25 µg/mL
same,MIC,[15]; [27],6 µg/mL
"CCCCCCCCCCCCOc1ccc(CCN)cc1 [Compound 101, 1-Amino-2-(4-dodecyloxyphenyl)ethane]",MIC,[6]; [19],13 µg/mL
same,MIC,[1]; [20],50 µg/mL
same,MIC,[2]; [21],8 µg/mL
same,MIC,[3],1 µg/mL
same,MIC,[8]; [22],6 µg/mL
same,MIC,[10]; [23],13 µg/mL
same,MIC,[11]; [24],25 µg/mL
same,MIC,"[12]; Table 2c, 5 days at 28° C.",3 µg/mL
same,MIC,[13]; [25],13 µg/mL
same,MIC,[14]; [26],50 µg/mL
same,MIC,"[16]; Table 2c, 5 days at 28° C.",13 µg/mL
same,MIC,[15]; [27],6 µg/mL
"CCCCCCOc1ccc(CCN)cc1OCCCCCC [Compound 102, 1-Amino-2-(3,4-dihexyloxyphenyl)ethane]",MIC,"[6]; ATCC9144, 48 h",13 µg/mL
same,MIC,[17],25 µg/mL
same,MIC,"[1]; ATCC10231, 48 h",4 µg/mL
same,MIC,"[2]; DSM20328, 48 h",4 µg/mL
same,MIC,"[7]; ATCC11829, 48 h",13 µg/mL
same,MIC,"[8]; ATCC25175, 48 h",3 µg/mL
same,MIC,"[9]; DSM43329, 48 h",13 µg/mL
same,MIC,"[10]; DSM20742, 48 h",6 µg/mL
same,MIC,"[11]; DSM20709, 48 h",2 µg/mL
same,MIC,[12],6 µg/mL
same,MIC,"[13]; ATCC12228, 48 h",6 µg/mL
same,MIC,"[14]; ATCC10541, 48 h",13 µg/mL
same,MIC,[16],25 µg/mL
same,MIC,"[15]; ATCC373, 48 h",6 µg/mL
same,MIC,"[5]; NCTC8196, Table 2c, read-out: MIC [ppm] Escherichia coli NCTC 8196",4 µg/mL
same,MIC,[18],25 µg/mL
